Source: PubChem BioAssay (NCI)
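Grown in 96-well plates, cells were treated for 48 hours with each compound at five concentrations. Insufficient inhibition: endpoint recorded as highest concentration tested. GI50 is the concentration that inhibits growth by half. The concentration for full growth arrest is given as TGI.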

Columns and labels:
Test in all cases: NCI tumour cell line growth inhibition, 48 h
MALME-3M melanoma = test system: MALME-3M melanoma
SK-MEL-5 melanoma = test system: SK-MEL-5 melanoma
HT29 colon = test system: HT29 colon
786-0 renal = test system: 786-0 renal
SK-MEL-28 melanoma = test system: SK-MEL-28 melanoma
KM12 colon = test system: KM12 colon
LOX IMVI melanoma = test system: LOX IMVI melanoma
UACC-62 melanoma = test system: UACC-62 melanoma
A498 renal = test system: A498 renal
K-562 leukemia = test system: K-562 leukemia
SF-539 CNS = test system: SF-539 CNS
KM20L2 colon = test system: KM20L2 colon
HCC-2998 colon = test system: HCC-2998 colon
SN12C renal = test system: SN12C renal
HCT-116 colon = test system: HCT-116 colon
RPMI-8226 leukemia = test system: RPMI-8226 leukemia
OVCAR-5 ovarian = test system: OVCAR-5 ovarian
OVCAR-4 ovarian = test system: OVCAR-4 ovarian
SK-MEL-2 melanoma = test system: SK-MEL-2 melanoma
IGROV1 ovarian = test system: IGROV1 ovarian
SW-620 colon = test system: SW-620 colon
UO-31 renal = test system: UO-31 renal
SNB-75 CNS = test system: SNB-75 CNS
COLO 205 colon = test system: COLO 205 colon
EKVX NSCLC = test system: EKVX NSCLC
NCI-H226 lung = test system: NCI-H226 lung
SF-295 CNS = test system: SF-295 CNS
HL-60(TB) leukemia = test system: HL-60(TB) leukemia
NCI-H522 lung = test system: NCI-H522 lung
SF-268 CNS = test system: SF-268 CNS
UACC-257 melanoma = test system: UACC-257 melanoma
RXF 393 renal = test system: RXF 393 renal
M14 melanoma = test system: M14 melanoma
A549 NSCLC = test system: A549 NSCLC
OVCAR-8 ovarian = test system: OVCAR-8 ovarian
SNB-19 CNS = test system: SNB-19 CNS
U251 CNS = test system: U251 CNS
TK-10 renal = test system: TK-10 renal
HCT-15 colon = test system: HCT-15 colon
NCI-H23 lung = test system: NCI-H23 lung
OVCAR-3 ovarian = test system: OVCAR-3 ovarian
MOLT-4 leukemia = test system: MOLT-4 leukemia
HOP-62 NSCLC = test system: HOP-62 NSCLC
NCI-H460 lung = test system: NCI-H460 lung
CAKI-1 renal = test system: CAKI-1 renal
SK-OV-3 ovarian = test system: SK-OV-3 ovarian
ACHN renal = test system: ACHN renal
NCI/ADR-RES ovarian = test system: NCI/ADR-RES ovarian
SR leukemia = test system: SR leukemia
DU-145 prostate = test system: DU-145 prostate
PC-3 prostate = test system: PC-3 prostate
CCRF-CEM leukemia = test system: CCRF-CEM leukemia
MDA-N = test system: MDA-N
BT-549 breast = test system: BT-549 breast
T-47D breast = test system: T-47D breast
MDA-MB-231 breast = test system: MDA-MB-231 breast
HOP-92 NSCLC = test system: HOP-92 NSCLC
MDA-MB-435 = test system: MDA-MB-435
MCF7 breast = test system: MCF7 breast
HS 578T breast = test system: HS 578T breast
DLD-1 colon = test system: DLD-1 colon
LXFL 529 NSCLC = test system: LXFL 529 NSCLC
SNB-78 CNS = test system: SNB-78 CNS
XF 498 CNS = test system: XF 498 CNS
M19-MEL melanoma = test system: M19-MEL melanoma
RXF-631 renal = test system: RXF-631 renal
HOP-18 NSCLC = test system: HOP-18 NSCLC

## N[C@@H]1CCCC[C@@H]1N.O=P([O-])([O-])CN(CCN(CP(=O)([O-])[O-])CP(=O)([O-])[O-])CP(=O)([O-])[O-].[Pt+2]
MALME-3M melanoma
  GI50: > 25 µM
  TGI: > 25 µM
SK-MEL-5 melanoma
  GI50: > 25 µM
  TGI: > 25 µM
HT29 colon
  GI50: > 25 µM
  TGI: > 25 µM
786-0 renal
  GI50: > 25 µM
  TGI: > 25 µM
SK-MEL-28 melanoma
  GI50: > 25 µM
  TGI: > 25 µM
KM12 colon
  GI50: > 25 µM
  TGI: > 25 µM
LOX IMVI melanoma
  GI50: > 25 µM
  TGI: > 25 µM
UACC-62 melanoma
  GI50: > 25 µM
  TGI: > 25 µM
A498 renal
  GI50: > 25 µM
  TGI: > 25 µM
K-562 leukemia
  GI50: > 25 µM
  TGI: > 25 µM
SF-539 CNS
  GI50: > 25 µM
  TGI: > 25 µM
KM20L2 colon
  GI50: > 25 µM
  TGI: > 25 µM
HCC-2998 colon
  GI50: > 25 µM
  TGI: > 25 µM
SN12C renal
  GI50: > 25 µM
  TGI: > 25 µM
HCT-116 colon
  GI50: > 25 µM
  TGI: > 25 µM
RPMI-8226 leukemia
  GI50: > 25 µM
  TGI: > 25 µM
OVCAR-5 ovarian
  GI50: > 25 µM
  TGI: > 25 µM
OVCAR-4 ovarian
  GI50: > 25 µM
  TGI: > 25 µM
SK-MEL-2 melanoma
  GI50: > 25 µM
  TGI: > 25 µM
IGROV1 ovarian
  GI50: > 25 µM
  TGI: > 25 µM
SW-620 colon
  GI50: > 25 µM
  TGI: > 25 µM
UO-31 renal
  GI50: > 25 µM
  TGI: > 25 µM
SNB-75 CNS
  GI50: > 25 µM
  TGI: > 25 µM
COLO 205 colon
  GI50: > 25 µM
  TGI: > 25 µM
EKVX NSCLC
  GI50: > 25 µM
  TGI: > 25 µM
NCI-H226 lung
  GI50: > 25 µM
  TGI: > 25 µM
SF-295 CNS
  GI50: > 25 µM
  TGI: > 25 µM
HL-60(TB) leukemia
  GI50: > 25 µM
  TGI: > 25 µM
NCI-H522 lung
  GI50: > 25 µM
  TGI: > 25 µM
SF-268 CNS
  GI50: > 25 µM
  TGI: > 25 µM
UACC-257 melanoma
  GI50: > 25 µM
  TGI: > 25 µM
RXF 393 renal
  GI50: > 25 µM
  TGI: > 25 µM
M14 melanoma
  GI50: > 25 µM
  TGI: > 25 µM
A549 NSCLC
  GI50: > 25 µM
  TGI: > 25 µM
OVCAR-8 ovarian
  GI50: > 25 µM
  TGI: > 25 µM
SNB-19 CNS
  GI50: > 25 µM
  TGI: > 25 µM
U251 CNS
  GI50: > 25 µM
  TGI: > 25 µM
TK-10 renal
  GI50: > 25 µM
  TGI: > 25 µM
HCT-15 colon
  GI50: > 25 µM
  TGI: > 25 µM
NCI-H23 lung
  GI50: > 25 µM
  TGI: > 25 µM
OVCAR-3 ovarian
  GI50: > 25 µM
  TGI: > 25 µM
MOLT-4 leukemia
  GI50: > 25 µM
  TGI: > 25 µM
HOP-62 NSCLC
  GI50: > 25 µM
  TGI: > 25 µM
NCI-H460 lung
  GI50: > 25 µM
  TGI: > 25 µM
CAKI-1 renal
  GI50: > 25 µM
  TGI: > 25 µM
SK-OV-3 ovarian
  GI50: > 25 µM
  TGI: > 25 µM
ACHN renal
  GI50: > 25 µM
  TGI: > 25 µM

## Cc1cc(-c2nc3ccc(F)cc3s2)ccc1NC(=O)[C@H](C)N
MALME-3M melanoma
  TGI: 36.2 µM
SK-MEL-5 melanoma
  TGI: 26.3 µM
HT29 colon
  TGI: 8.38 µM
NCI/ADR-RES ovarian
  TGI: 28.5 µM
786-0 renal
  TGI: 16.9 µM
SK-MEL-28 melanoma
  TGI: 29.3 µM
KM12 colon
  TGI: 15.3 µM
LOX IMVI melanoma
  TGI: 3.99 µM
UACC-62 melanoma
  TGI: 3.6 µM
A498 renal
  TGI: 21.7 µM
K-562 leukemia
  TGI: 4.7 µM
SF-539 CNS
  TGI: 14.9 µM
HCC-2998 colon
  TGI: 4.5 µM
SR leukemia
  TGI: 5.65 µM
SN12C renal
  TGI: 28.7 µM
HCT-116 colon
  TGI: 11.4 µM
RPMI-8226 leukemia
  TGI: 13.8 µM
OVCAR-5 ovarian
  TGI: 21.7 µM
OVCAR-4 ovarian
  TGI: 24.4 µM
SK-MEL-2 melanoma
  TGI: 25.2 µM
IGROV1 ovarian
  TGI: 20 µM
SW-620 colon
  TGI: 15 µM
UO-31 renal
  TGI: 14 µM
DU-145 prostate
  TGI: 26 µM
PC-3 prostate
  TGI: 24.3 µM
SNB-75 CNS
  TGI: 25.4 µM
COLO 205 colon
  TGI: 23.8 µM
CCRF-CEM leukemia
  TGI: 6.23 µM
MDA-N
  TGI: 6.19 µM
EKVX NSCLC
  TGI: 23 µM
NCI-H226 lung
  TGI: 19.3 µM
SF-295 CNS
  TGI: 24.7 µM
HL-60(TB) leukemia
  TGI: 7.45 µM
NCI-H522 lung
  TGI: 20.7 µM
BT-549 breast
  TGI: 26.8 µM
SF-268 CNS
  TGI: 22.8 µM
UACC-257 melanoma
  TGI: 11.8 µM
T-47D breast
  TGI: > 37.4 µM
RXF 393 renal
  TGI: 21.7 µM
M14 melanoma
  TGI: 3.94 µM
A549 NSCLC
  TGI: 24.6 µM
MDA-MB-231 breast
  TGI: 22.6 µM
OVCAR-8 ovarian
  TGI: 27.3 µM
SNB-19 CNS
  TGI: 29.6 µM
HOP-92 NSCLC
  TGI: 24.7 µM
U251 CNS
  TGI: 9.06 µM
TK-10 renal
  TGI: 5.11 µM
HCT-15 colon
  TGI: 14.1 µM
NCI-H23 lung
  TGI: 26.1 µM
MDA-MB-435
  TGI: 5.82 µM
OVCAR-3 ovarian
  TGI: 23.7 µM
MOLT-4 leukemia
  TGI: 12.8 µM
MCF7 breast
  TGI: 13.1 µM
HS 578T breast
  TGI: 28.5 µM
HOP-62 NSCLC
  TGI: 24.5 µM
NCI-H460 lung
  TGI: 6.09 µM
CAKI-1 renal
  TGI: 22.1 µM
SK-OV-3 ovarian
  TGI: 28.2 µM
ACHN renal
  TGI: 22.9 µM

## CCc1c(OC(C)=O)c2c(NC3OCC(OC(C)=O)C(OC(C)=O)C3OC(C)=O)nc(SC)nc2oc1=O (stereo unspecified)
MALME-3M melanoma
  TGI: > 100 µM
SK-MEL-5 melanoma
  TGI: > 100 µM
HT29 colon
  TGI: > 100 µM
786-0 renal
  TGI: > 100 µM
DLD-1 colon
  TGI: > 100 µM
KM12 colon
  TGI: > 100 µM
LOX IMVI melanoma
  TGI: > 100 µM
LXFL 529 NSCLC
  TGI: > 100 µM
UACC-62 melanoma
  TGI: > 100 µM
A498 renal
  TGI: > 100 µM
K-562 leukemia
  TGI: > 100 µM
SF-539 CNS
  TGI: > 100 µM
KM20L2 colon
  TGI: > 100 µM
HCC-2998 colon
  TGI: > 100 µM
SN12C renal
  TGI: > 100 µM
HCT-116 colon
  TGI: > 100 µM
RPMI-8226 leukemia
  TGI: > 100 µM
OVCAR-5 ovarian
  TGI: > 100 µM
OVCAR-4 ovarian
  TGI: > 100 µM
SK-MEL-2 melanoma
  TGI: > 100 µM
IGROV1 ovarian
  TGI: > 100 µM
SW-620 colon
  TGI: > 100 µM
UO-31 renal
  TGI: > 100 µM
SNB-75 CNS
  TGI: > 100 µM
COLO 205 colon
  TGI: > 100 µM
CCRF-CEM leukemia
  TGI: > 100 µM
EKVX NSCLC
  TGI: > 100 µM
NCI-H226 lung
  TGI: > 100 µM
SF-295 CNS
  TGI: > 100 µM
HL-60(TB) leukemia
  TGI: > 100 µM
UACC-257 melanoma
  TGI: > 100 µM
RXF 393 renal
  TGI: > 100 µM
SNB-78 CNS
  TGI: > 100 µM
M14 melanoma
  TGI: > 100 µM
XF 498 CNS
  TGI: > 100 µM
A549 NSCLC
  TGI: > 100 µM
OVCAR-8 ovarian
  TGI: > 100 µM
M19-MEL melanoma
  TGI: > 100 µM
SNB-19 CNS
  TGI: > 100 µM
HOP-92 NSCLC
  TGI: > 100 µM
U251 CNS
  TGI: > 100 µM
TK-10 renal
  TGI: > 100 µM
HCT-15 colon
  TGI: > 100 µM
NCI-H23 lung
  TGI: > 100 µM
OVCAR-3 ovarian
  TGI: > 100 µM
MOLT-4 leukemia
  TGI: > 100 µM
RXF-631 renal
  TGI: > 100 µM
HOP-18 NSCLC
  TGI: > 100 µM
HOP-62 NSCLC
  TGI: > 100 µM
NCI-H460 lung
  TGI: > 100 µM
CAKI-1 renal
  TGI: > 100 µM
SK-OV-3 ovarian
  TGI: > 100 µM
ACHN renal
  TGI: > 100 µM
